Results: patent US20260199239A1, “IONIZABLE LIPIDS WITH MALONATE TAILS” (ModernaTX, Inc., priority 2022, published 2026)
Values joined by “and” are separate entries in the source; they are usually repeats but may differ in a detail not shown here. Identical values can stand only once.

Experiments:
[1] = LNP particle size and polydispersity index (PDI); type: physicochemical; conditions: LNP lipid:PEG-1:DSPC:Cholesterol 48:2:11:39, hEPO mRNA, 20 mM Tris 8% Sucrose pH 7.4
Experimental: A Zetasizer Nano ZS (Malvern Instruments Ltd, Malvern, Worcestershire, UK) can be used to determine the particle size, the polydispersity index (PDI) and the zeta potential of the nanoparticle compositions in 1×PBS in determining particle size and 15 mM PBS in determining zeta potential.
LNPs may be characterized by a variety of methods. For example, microscopy (e.g., transmission electron microscopy or scanning electron microscopy) may be used to examine the morphology and size distribution of a nanoparticle composition. Dynamic light scattering or potentiometry (e.g., potentiometric titrations) may be used to measure zeta potentials. Dynamic light scattering may also be utilized to determine particle sizes. Instruments such as the Zetasizer Nano ZS (Malvern Instruments Ltd, Malvern, Worcestershire, UK) may also be used to measure multiple characteristics of a nanoparticle composition, such as particle size, polydispersity index, and zeta potential.
(§1) LNPs comprising ionizable lipids described herein were formulated according to Table 2 and the following general procedure.
(§2) General procedure for one-pot LNP formation: Lipid stock solutions in ethanol are mixed with mRNA in 25 mM acetate solution at a 3:1 ratio in a microfluidic mixer. The resulting LNPs, which are at approximately pH 5 and 25% EtOH, are buffer exchanged by dialysis into the storage buffer. The LNP solutions are then concentrated by Amicon® and purified by a 0.2 uM sterile filter.

[2] = Endotoxin content of LNP formulation; conditions: LNP lipid:PEG-1:DSPC:Cholesterol 48:2:11:39, hEPO mRNA
Source text: as §1

pH of LNP formulation = type: physicochemical; conditions: LNP formulation in 20 mM Tris 8% Sucrose storage buffer
Source text: as §1

[3] = Osmolality of LNP formulation; type: physicochemical; conditions: LNP formulation in 20 mM Tris 8% Sucrose storage buffer
Source text: as §1

[4] = mRNA encapsulation by the LNP (% EE, total mRNA in TX); type: physicochemical; conditions: LNP lipid:PEG-1:DSPC:Cholesterol 48:2:11:39, hEPO mRNA
Experimental: For nanoparticle compositions including an RNA, a QUANT-IT™ RIBOGREEN® RNA assay (Invitrogen Corporation Carlsbad, CA) can be used to evaluate the encapsulation of an RNA by the nanoparticle composition. The samples are diluted to a concentration of approximately 5 μg/mL in a TE buffer solution (10 mM Tris-HCl, 1 mM EDTA, pH 7.5). 50 μL of the diluted samples are transferred to a polystyrene 96 well plate and either 50 μL of TE buffer or 50 μL of a 2% Triton X-100 solution is added to the wells. The plate is incubated at a temperature of 37° C. for 15 minutes. The RIBOGREEN® reagent is diluted 1:100 in TE buffer, and 100 μL of this solution is added to each well. The fluorescence intensity can be measured using a fluorescence plate reader (Wallac Victor 1420 Multilablel Counter; Perkin Elmer, Waltham, MA) at an excitation wavelength of, for example, about 480 nm and an emission wavelength of, for example, about 520 nm. The fluorescence values of the reagent blank are subtracted from that of each of the samples and the percentage of free RNA is determined by dividing the fluorescence intensity of the intact sample (without addition of Triton X-100) by the fluorescence value of the disrupted sample (caused by the addition of Triton X-100).
The efficiency of encapsulation of a therapeutic and/or prophylactic agent describes the amount of therapeutic and/or prophylactic agent that is encapsulated or otherwise associated with an LNP after preparation, relative to the initial amount provided. The encapsulation efficiency is desired to be high (e.g., close to 100%). The encapsulation efficiency may be measured, for example, by comparing the amount of therapeutic and/or prophylactic agent in a solution containing a loaded LNP before and after breaking up the loaded LNP with one or more organic solvents or detergents. Fluorescence may be used to measure the amount of free therapeutic and/or prophylactic agent (e.g., RNA) in a solution. For the loaded LNPs formulated with lipids of the disclosure, the encapsulation efficiency of a therapeutic and/or prophylactic agent is at least 50%, for example 50%, 55%, 60%, 65%, 70%, 75%, 80%, 85%, 90%, 91%, 92%, 93%, 94%, 95%, 96%, 97%, 98%, 99%, or 100%. In some embodiments, the encapsulation efficiency is at least 80%. In some embodiments, the encapsulation efficiency is at least 90%. In some embodiments, the encapsulation efficiency of the therapeutic and/or prophylactic agent is between 80% and 100%.
as §1, §2

hEPO protein expression = hEPO protein expression in vivo after systemic administration of LNPs
Experimental: In order to monitor how effectively various nanoparticle compositions deliver therapeutic and/or prophylactic agents to targeted cells, different nanoparticle compositions including a particular therapeutic and/or prophylactic agent (for example, a modified or naturally occurring RNA such as an mRNA) are prepared and administered to animal populations. Animals (e.g., mice, rats, or non-human primates) are intravenously, intramuscularly, intraarterially, or intratumorally administered a single dose including a nanoparticle composition comprising a lipid of the disclosure and an mRNA expressing a protein, e.g., human erythropoietin (hEPO) or luciferase. A control composition including PBS may also be employed.
Upon administration of nanoparticle compositions to an animal, dose delivery profiles, dose responses, and toxicity of particular formulations and doses thereof can be measured by enzyme-linked immunosorbent assays (ELISA), bioluminescent imaging, or other methods. For nanoparticle compositions including mRNA, time courses of protein expression can also be evaluated. Samples collected from the animals for evaluation may include blood, sera, and tissue (for example, muscle tissue from the site of an intramuscular injection and internal tissue); sample collection may involve sacrifice of the animals.
ELISA test kits may provide hEPO concentrations in milli International Units per mL (mIU/mL), e.g., per mL of tested serum. Typically, the EPO concentration of unknown sample is calculated from a calibration curve. Standards (used for the calibration curve) are calibrated according to the 2. IRP WHO preparation. In some embodiments, mIU/mL corresponds to […]. Nanoparticle compositions including mRNA are useful in the evaluation of the efficacy and usefulness of various formulations for the delivery of therapeutic and/or prophylactic agents. Higher levels of protein expression induced by administration of a composition including an mRNA will be indicative of higher mRNA translation and/or nanoparticle composition mRNA delivery efficiencies. As the non-RNA components are not thought to affect translational machineries themselves, a higher level of protein expression is likely indicative of a higher efficiency of delivery of the therapeutic and/or prophylactic agent by a given nanoparticle composition relative to other nanoparticle compositions or the absence thereof.
In some embodiments, an in vivo expression assay may be used to assess potency of expression of lipids of the disclosure. In some embodiments, the protein expression (hEPO) may be measured in mice following administration of a nanoparticle comprising a lipid of the disclosure (e.g., a loaded LNP). In some embodiments, lipid nanoparticles of the instant disclosure may be intravenously administered to mice (e.g., CD-1 mice).
In some embodiments, the concentration of hEPO in serum may be tested after administration (e.g., about six hours after injection). In some embodiments, residual levels of the lipids of the disclosure in organs or tissue of the subject after administration (e.g., 6 h, 12 h, 18 h, 24 h, 36h, or 48 h after administration) are measured. In some embodiments, the residual levels of the lipids of the disclosure in the liver are measured. In some embodiments, an in vitro expression assay may be used to assess nanoparticles of the disclosure. In some embodiments, cells (e.g., HeLa) may be plated in an imaging plate (e.g., poly-D-lysine coated) and cultured in serum (e.g., human serum, mouse serum, cynomolgus monkey serum or fetal bovine serum). In some embodiments, lipid nanoparticles of the disclosure comprising an mRNA expressing fluorescent protein (e.g., green fluorescent protein (GFP)) and a fluorescent lipid (e.g., rhodamine-DOPE) may be added to the plate and the plate imaged for uptake and expression. In some embodiments, expression may be evaluated by measuring fluorescence (e.g., from GFP). […]

[5] = Table 3B groups 1A-8A, ratio to L5 LNP
[6] = Table 3A groups 1-8, ratio to L5 LNP

SMILES | PDI [1] | Size (nm) [1] | Endotoxin (EU/mL) [2] | pH (pH of LNP formulation) | Osmolality (mOsm/kg) [3] | % EE [4] | 6 hr protein expression ratio cf. L5 (hEPO protein expression; [5]) | 24 hr protein expression ratio cf. L5 (hEPO protein expression; [5]) | 6 hr protein expression ratio cf. L5 (hEPO protein expression; [6]) | 24 hr protein expression ratio cf. L5 (hEPO protein expression; [6])
CCCCCCCCC(CCCCCCCC)OC(=O)CCCCCCCN(CCCCCCC(C(=O)OCCCCCC)C(=O)OCCCCCC)CCCNC(C)=O [Compound M4, Dihexyl 2-(6-((3-acetamidopropyl)(8-(heptadecan-9-yloxy)-8-oxooctyl)amino)hexyl)malonate] | 0.099 | 68.7 nm | 2.6 EU/mL | 7.450 | 321 mOsm/kg | 92.2% | 0.34 | 0.36 |  | 
CCCCCCCCOC(=O)C(CCCCCCN(CCO)CCCCCCCC(=O)OC(CCCCCCCC)CCCCCCCC)C(=O)OCCCCCCCC [Compound M2, Dioctyl 2-(6-((8-(heptadecan-9-yloxy)-8-oxooctyl)(2-hydroxyethyl)amino)hexyl)malonate] | 0.186 | 58.0 nm |  |  | 315 mOsm/kg | 97.9% |  |  | 0.3 | 0.3
CCCCCCCCC(CCCCCCCC)OC(=O)CCCCCCCN(CCCCCCC(C(=O)OCCCCCC)C(=O)OCCCCCC)CCCNc1c(NC)c(=O)c1=O [Compound M3, Dihexyl 2-(6-((8-(heptadecan-9-yloxy)-8-oxooctyl)(3-((2-(methylamino)-3,4-dioxocyclobut-1-en-1-yl)amino)propyl)amino)hexyl)malonate] | 0.148 and 0.132 | 59.3 nm and 59.1 nm | 2 EU/mL | 7.155 | 317 mOsm/kg and 318 mOsm/kg | 97.8% and 98.3% | 2.53 | 2.42 | 1.0 | 1.2
CCCCCCCCC(CCCCCCCC)OC(=O)CCCCCCCN(CCCCCCC(C(=O)OCCCCCC)C(=O)OCCCCCC)CCCNC(=O)CC [Compound M5, Dihexyl 2-(6-((8-(heptadecan-9-yloxy)-8-oxooctyl)(3-propionamidopropyl)amino)hexyl)malonate] | 0.496 | 126.7 nm | 2.7 EU/mL | 6.962 | 320 mOsm/kg | 69.8% | 1.37 | 1.15 |  | 
CCCCCCCCC(CCCCCCCC)OC(=O)CCCCCCCN(CCCCCCC(C(=O)OCCCCCC)C(=O)OCCCCCC)CCCNC(=O)C1CC1 [Compound M6, Dihexyl 2-(6-((3-(cyclopropanecarboxamido)propyl)(8-(heptadecan-9-yloxy)-8-oxooctyl)amino)hexyl)malonate] | 0.418 | 104.9 nm | <2 EU/mL | 7.450 | 317 mOsm/kg | 67.8% | 0.82 | 0.81 |  | 
CCCCCCCCCOC(=O)CCCCCCCN(CCO)CCCCCCCC(=O)OC(CCCCCCCC)CCCCCCCC [Compound L4, reference compound] |  | 74.9 nm and 104.5 nm | 2.3 EU/mL | 7.444 | 317 mOsm/kg and 311 mOsm/kg | 94.8% and 92.6% | 0.08 | 0.07 | 0.1 | 0.1
CCCCCCCCC(CCCCCCCC)OC(=O)CCCCCCCN(CCO)CCCCCCC(C(=O)OCCCCCC)C(=O)OCCCCCC [Compound M1, Dihexyl 2-(6-((8-(heptadecan-9-yloxy)-8-oxooctyl)(2-hydroxyethyl)amino)hexyl)malonate] | 0.164 and 0.128 | 57.0 nm and 58.7 nm | 2.4 EU/mL | 7.452 | 314 mOsm/kg and 320 mOsm/kg | 96.9% and 94.1% | 1.70 | 1.46 | 0.9 | 0.9
CCCCCCCCC(CCCCCCCC)OC(=O)CCCCCCCN(CCCCCCCC(=O)OCCC(CCCC)CCCC)CCCNS(=O)(=O)CC [Compound L2, reference compound] | 0.177 | 60.7 nm |  |  | 315 mOsm/kg | 95.8% |  |  | 0.7 | 0.8
